Data set [1] addresses T1, recombinant CETP (Homo sapiens, UniProt P11597).
T1 sequence (P11597 18-493): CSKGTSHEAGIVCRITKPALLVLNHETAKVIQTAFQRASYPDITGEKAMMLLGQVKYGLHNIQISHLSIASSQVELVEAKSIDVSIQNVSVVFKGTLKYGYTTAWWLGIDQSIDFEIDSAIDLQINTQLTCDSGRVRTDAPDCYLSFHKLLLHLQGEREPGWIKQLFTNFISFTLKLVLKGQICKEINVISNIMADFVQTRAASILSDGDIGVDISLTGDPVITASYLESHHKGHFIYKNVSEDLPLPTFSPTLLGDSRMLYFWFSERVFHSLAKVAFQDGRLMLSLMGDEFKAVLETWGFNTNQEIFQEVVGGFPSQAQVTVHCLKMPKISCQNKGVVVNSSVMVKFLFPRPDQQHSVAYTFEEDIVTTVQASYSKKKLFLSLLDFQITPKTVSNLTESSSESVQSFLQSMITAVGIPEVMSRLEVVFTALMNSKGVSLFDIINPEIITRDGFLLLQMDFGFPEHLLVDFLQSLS
Put plainly: RTA assay using recombinant CETP (2% RTA). The data set is classed as biochemical. Conditions: 2% human serum. Here is the method: (§1) In Vitro Radioactive Assays of CETP-Catalyzed CE and TG Transfer (RTA Assay)
(§2) Reagents and sources are: [3H] cholesteryl oleate (GE #TRK.886), [3H] Triolein (Perkin-Elmer NET-431), Butylated hydroxyl toluene (Aldrich, #D4740-4), DOPC (Sigma, #P6354), Sodium Bromide (Fisher scientific #S255-500), PEG 8000 (Fisher, #BP233-1), and human HDL (Intracel Corp #RP-036).
(§3) An in vitro assay for determining IC50's to identify compounds that inhibit CETP transfer activity is performed based on a modification of a published method (Morton and Zilversmit, (1981) A plasma inhibitor of triglyceride and cholesteryl ester transfer activities, J. Biol. Chem. 256(23), 11992-11995). The ability of inhibitors to alter CETP activity is performed using two different assays: one using recombinant CETP and one using an endogenous plasma source of CETP. Both assays measure the transfer of [3H] cholesteryl oleate or [3H] triolein from exogenous LDL to HDL.
(§4) Radiolabeled donor particles are generated by first combining 100 μl of 200 μM butylated hydroxyl toluene in CHCl3, 216 μL of 21.57 mM DOPC in EtOH, and either 500 μCi [3H]-triolein (Perkin Elmer #NET-431) or 500 μCi [3H]-cholesteryl oleate (GE #TRK886) in a glass tube. Reagents are mixed, dried under nitrogen, and then resuspended in 2 mL of 50 mM Tris, 27 μM EDTA at pH 7.4. After a brief vortex, the solution is sonicated until clear and mixed with 20 mL of fresh human serum. The mixture is incubated overnight at 37° C. The [3H] labeled LDL substrate is separated at 1.063 g/ml density by sequential ultracentrifugal flotation in NaBr according to the method of Havel, Eder, et al., 1955, and Chapman, Goldstein, et al., 1981. Once isolated the particles are dialyzed 3× in CETP buffer (50 mM Tris, pH 7.4, 100 mM NaCl, 1 mM EDTA). Human HDL is purchased from Intracel and used as the acceptor particles.
(§5) Transfer assays are performed in a 96-well v-bottom polypropylene plate. For the RTA using recombinant CETP (2% RTA), an assay cocktail is prepared with the final concentrations 128 μg/mL HDL, 20 nM rCETP, 2% human serum, and 1×CETP buffer. 1 μL of each test compound diluted in DMSO is added to 47 μL of assay cocktail per well and incubated at 37° C. for 1 hour. To initiate the transfer reaction, 2 μL radiolabeled LDL is added. After an additional 60 min of incubation at 37° C., the transfer action is terminated by precipitation of LDL with an equal volume of 20% W/V PEG 8000. The plates are centrifuged at 2000 rpm for 30 minutes at 4° C. A 40 μL aliquot of the HDL-containing supernatant is transferred to a Packard Optiplate™ with 200 μL of MicroScint™ 20. After mixing, plates are counted by liquid scintillation. Counts present in the supernatant for blanks (wells containing only HDL acceptor, CETP buffer and DMSO) are subtracted from those containing test compounds and used to correct for non-specific transfer.
(§6) Comparison of the counts of samples with inhibitors to an uninhibited (DMSO only) positive control yield a percent inhibition. A plot of percent inhibition vs. log of inhibitor concentration, fit to a Sigmoidal 4 parameter equation is used to calculate IC50.

For data set [2], the target named is T2, endogenous CETP from human serum (Homo sapiens, UniProt P11597).
T2 construct: yielding a concentration of approximately 15 nM endogenous CETP in the assay; from tissue; host or cells: human serum
T2 sequence (P11597 18-493): T1 sequence (P11597 18-493)
The data set can be described thus: RTA assay using endogenous CETP from serum (95% RTA). Type of data set: biochemical. As to conditions: 95% human serum. The method, then:
as §1, §2, §3, §4, §5
For the transfer assay using endogenous CETP from serum (95% RTA), the same procedure is used except that human serum is added such that a final concentration of serum of 95% of the total assay volume is achieved, yielding a concentration of approximately 15 nM endogenous CETP in the assay. This is then combined with HDL and CETP buffer and the reaction proceeds as above and is terminated as described.
as §6

For data set [3] the following is noted: cited from earlier work.
For data set [4] the following is noted: Phase III outcomes trial, cited from earlier work.
The conditions of data set [5]: torcetrapib and atorvastatin concomitantly, compared with atorvastatin alone; cited from earlier work.
[6] abbreviates: patients on baseline statin therapy, compared with patients treated with just a statin.

Here are results for 17 compounds from patent US9688630B2, “3,3′-disubstituted indolines as inhibitors of cholesterol ester transfer protein” (Merck Sharp & Dohme Corp., priority 2013, dated 2017).

For `O[C@H](CN1CC(Cc2cccc(-c3cccc(OC(F)(F)F)c3)c2)(c2cccc(OC(F)(F)F)c2)c2ccccc21)C(F)(F)F` (stereo partly drawn) [Example 47, (2R)-1,1,1-trifluoro-3-(3-((3′-(trifluoromethoxy)-[1,1′-biphenyl]-3-yl)methyl)-3-(3-(trifluoromethoxy)phenyl)indolin-1-yl)propan-2-ol], the IC50 (as a rule, the midpoint of a concentration-inhibition curve) in data set [1] amounted to 720 nM; in data set [2], 2880 nM.

Consider `O[C@H](CN1CC(Cc2cccc(N3CC(F)(F)C3)c2)(c2cccc(OC(F)(F)F)c2)c2ccccc21)C(F)(F)F` (stereo partly drawn) [Example 48, (2R)-3-(3-(3-(3,3-difluoroazetidin-1-yl)benzyl)-3-(3-(trifluoromethoxy)phenyl)indolin-1-yl)-1,1,1-trifluoropropan-2-ol], for which the results for the 50% inhibitory concentration (IC50) in data set [1] and in data set [2] were 83 nM and 246 nM, respectively.

For `CO[C@H]1CCN(c2cccc(CC3(c4cccc(OC(F)(F)F)c4)CN(C[C@@H](O)C(F)(F)F)c4ccccc43)c2)C1` (stereo partly shown) [Example 49], the IC50 in data set [1] turned out to be 197 nM; in data set [2] it was 2100 nM.

For the compound `C[C@H]1CN(c2cccc(CC3(c4cccc(OC(F)(F)F)c4)CN(C[C@@H](O)C(F)(F)F)c4ccccc43)c2)CCO1` (stereo partly shown) [Example 50], the figures for the IC50 in data set [1] and in data set [2] were 474 nM and 4930 nM, respectively.

For the compound `C[C@@H]1CN(c2cccc(CC3(c4cccc(OC(F)(F)F)c4)CN(C[C@@H](O)C(F)(F)F)c4ccccc43)c2)CCO1` (stereo partly shown) [Example 51], the IC50 in data set [1] is 1610 nM; in data set [2], 1720 nM.

In the case of `O[C@H](CN1CC(Cc2cccc(N3CC(F)C3)c2)(c2cccc(OC(F)(F)F)c2)c2ccccc21)C(F)(F)F` (stereo partly shown) [Example 52], the IC50 in data set [1] was found to be 447 nM; in data set [2] it was 5840 nM.

As for `CC1(O)CN(c2cccc(CC3(c4cccc(OC(F)(F)F)c4)CN(C[C@@H](O)C(F)(F)F)c4ccccc43)c2)C1` (stereo partly shown) [Example 53], the figures for the IC50 in data set [1] and in data set [2] were 680 nM and 8050 nM, respectively.

On to `O[C@H](CN1CC(Cc2cccc(N3CCC(F)(F)C3)c2)(c2cccc(OC(F)(F)F)c2)c2ccccc21)C(F)(F)F` (stereo partly shown) [Example 54], for which the IC50 in data set [1] turned out to be 510 nM; in data set [2], 3650 nM.

Consider `O[C@H](CN1CC(Cc2cccc(N3CC4(COC4)C3)c2)(c2cccc(OC(F)(F)F)c2)c2ccccc21)C(F)(F)F` (stereo partly shown) [Example 55], for which the results for the concentration for half-maximal inhibition (IC50) in data set [1] and in data set [2] were 98 nM and 533 nM, respectively.

For `O[C@H](CN1CC(Cc2cccc(N3CCC(F)(F)CC3)c2)(c2cccc(OC(F)(F)F)c2)c2ccccc21)C(F)(F)F` (stereo partly shown) [Example 56], the IC50 in data set [1] is 413 nM; in data set [2] it was 6940 nM.

`O[C@H](CN1CC(Cc2cccc(N3CC[C@H](F)C3)c2)(c2cccc(OC(F)(F)F)c2)c2ccccc21)C(F)(F)F` (stereo partly shown) [Example 57]: the IC50 in data set [1] was determined as 350 nM; in data set [2], 3680 nM.

On to `O[C@H](CN1CC(Cc2cccc(N3CC[C@@H](F)C3)c2)(c2cccc(OC(F)(F)F)c2)c2ccccc21)C(F)(F)F` (stereo partly shown) [Example 58], for which the values for the IC50 in data set [1] and in data set [2] were 171 nM and 1410 nM, respectively.

Consider `O[C@H](CN1CC(Cc2cccc(N3CCCC(F)(F)C3)c2)(c2cccc(OC(F)(F)F)c2)c2ccccc21)C(F)(F)F` (stereo partly shown) [Example 59], for which the figures for the IC50 in data set [1] and in data set [2] were 198 nM and 1420 nM, respectively.

Turning to `COC(=O)c1cccc(CC2(c3cccc(OC(F)(F)F)c3)CN(C[C@@H](O)C(F)(F)F)c3ccccc32)c1` (stereo partly drawn) [Example 60, Methyl 3-((1-((R)-3,3,3-trifluoro-2-hydroxypropyl)-3-(3-(trifluoromethoxy)phenyl)indolin-3-yl)methyl)benzoate], the half-maximal inhibitory concentration (IC50) in data set [1] amounted to 668 nM; in data set [2] it was 937 nM.

Consider `COc1cc(F)c(C(C)C)cc1-c1ccc(C(F)(F)F)cc1CN1C(=O)O[C@H](c2cc(C(F)(F)F)cc(C(F)(F)F)c2)[C@@H]1C` [anacetrapib], for which, in data set [3] (setting [6]), the “decrease of LDL-C” value is reported as 40% and the “increase of HDL-C” value is 138%. Further, the increase in mortality entry in data set [3] (patients treated with anacetrapib, DEFINE trial) was “unlikely”.

As for `CCC(CC)CC1(C(=O)Nc2ccccc2SC(=O)C(C)C)CCCCC1` [dalcetrapib], in data set [4] (terminated early), the “clinical benefit (interim data)” value is listed as “did not show a clinical benefit”. For the same compound, the safety issues entry in data set [4] is recorded as “no safety issues detected”.

For the compound `CCOC(=O)N1c2ccc(C(F)(F)F)cc2[C@@H](N(Cc2cc(C(F)(F)F)cc(C(F)(F)F)c2)C(=O)OC)C[C@H]1CC` [torcetrapib], the incidence of mortality result in data set [5] is given as “higher incidence of mortality”.
